Experimental data taken from ChEMBL document CHEMBL1275369, “Structural insights into the hot spot amino acid residues of mushroom tyrosinase for the bindings of thujaplicins” (Bioorg Med Chem, 2010).

T1: Tyrosinase (Agaricus bisporus, UniProt O42713)
T1 sequence (O42713 whole entry): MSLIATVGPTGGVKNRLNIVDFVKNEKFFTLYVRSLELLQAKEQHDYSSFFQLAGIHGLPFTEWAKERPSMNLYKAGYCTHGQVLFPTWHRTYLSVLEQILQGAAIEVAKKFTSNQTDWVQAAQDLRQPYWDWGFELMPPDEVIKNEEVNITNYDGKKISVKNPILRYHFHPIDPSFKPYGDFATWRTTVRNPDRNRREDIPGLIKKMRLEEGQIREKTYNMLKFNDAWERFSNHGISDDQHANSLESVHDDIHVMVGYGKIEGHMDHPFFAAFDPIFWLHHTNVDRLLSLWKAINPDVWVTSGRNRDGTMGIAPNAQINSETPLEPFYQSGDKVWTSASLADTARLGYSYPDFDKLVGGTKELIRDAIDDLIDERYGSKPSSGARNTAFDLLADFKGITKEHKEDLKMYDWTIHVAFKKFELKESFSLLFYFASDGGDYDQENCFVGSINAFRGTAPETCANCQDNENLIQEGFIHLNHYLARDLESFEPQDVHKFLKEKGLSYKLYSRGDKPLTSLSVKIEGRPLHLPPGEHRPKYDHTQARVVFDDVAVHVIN

B1: Tyrosinase (Agaricus bisporus), O42713 (protein)
chain: T1 sequence (O42713 whole entry)

Assays:
[1] = target: T1, Tyrosinase; test: Inhibition of mushroom tyrosinase after 15 mins
[2] = target: T1, Tyrosinase; test: Competitive inhibition of mushroom tyrosinase after 15 mins by Lineweaver-Burke plot analysis
[3] = substrate: CC(C)c1ccc(O)c(=O)cc1; details: Agaricus bisporus; 0.06 uM
Description: Inhibition of mushroom tyrosinase at 0.06 uM after 15 mins by Michaelis-Menten constant analysis

[4] = substrate: CC(C)c1ccc(O)c(=O)cc1; details: Agaricus bisporus; 0.02 uM
Description: Inhibition of mushroom tyrosinase at 0.02 uM after 15 mins by Michaelis-Menten constant analysis

[5] = substrate: CC(C)c1cccc(=O)c(O)c1; details: Agaricus bisporus; 0.05 uM
Description: Inhibition of mushroom tyrosinase at 0.05 uM after 15 mins by Michaelis-Menten constant analysis

[6] = substrate: CC(C)c1ccccc(=O)c1O; details: Agaricus bisporus; 3 uM
Description: Inhibition of mushroom tyrosinase at 3 uM after 15 mins by Michaelis-Menten constant analysis

[7] = substrate: CC(C)c1ccccc(=O)c1O; details: Agaricus bisporus; 6 uM
Description: Inhibition of mushroom tyrosinase at 6 uM after 15 mins by Michaelis-Menten constant analysis

[8] = substrate: CC(C)c1cccc(=O)c(O)c1; details: Agaricus bisporus; 0.20 uM
Description: Inhibition of mushroom tyrosinase at 0.20 uM after 15 mins by Michaelis-Menten constant analysis

Row | Molecule | IC50 [1] [nM] | Ki [2] [nM] | Km [3] [µM] | Km [4] [µM] | Km [5] [µM] | Km [6] [µM] | Km [7] [µM] | Km [8] [µM]
1 | CC(C)c1ccccc(=O)c1O [ALPHA-THUJAPLICIN] | 9530 | 3300 |  |  |  |  |  | 
2 | CC(C)c1ccc(O)c(=O)cc1 [GAMMA-THUJAPLICIN] | 70 | 20 |  |  |  |  |  | 
3 | CC(C)c1cccc(=O)c(O)c1 [HINOKITIOL] | 90 | 60 |  |  |  |  |  | 
4 | B1 |  |  | 950 | 530 | 530 | 380 | 380 | 1160
